Measured values published in patent publication US12201624B2, “Compositions comprising mixtures of compounds and uses thereof” (Prostasis, LLC, priority 2021, dated 2025).

Test: Plasma and brain levels of the components by LC-MS/MS after 10 days of HFD containing the exemplary composition
Excerpt: In all studies described below, animals on the test diet received either a high fat diet (HFD) or a low-fat diet (LFD) ad libitum, with the diet further containing the components listed in Table 5.
Adult female wild-type C57/BL6 (Envigo) were used for the experiments. The animals were group housed in plastic cages (3-5 animals/cage) and had access to food and water ad libitum. Experiments were approved by the Institutional Animal Care and Use Committee of Brains On-Line LLC, South San Francisco, CA.
Mice were fed a HFD containing a composition comprising nicotinic acid, berberine, silibinin, lipoic acid and taurine (see Table 5) for 10 days. Subjects were euthanized, and plasma and brain samples were collected after 10 days feeding with a HFD containing the composition. The blood was collected into a vial already containing EDTA anticoagulant. The blood was centrifuged at 2500×g at 4° C. for 10 minutes. Supernatants were stored as plasma samples at −80° C. Immediately following blood collection, whole brains were rapidly extracted, placed into a pre-weighed tube, and weighed. Samples were snap frozen with liquid nitrogen.
Levels of nicotinic acid, berberine, silibinin (active form of Siliphos®), lipoic acid and taurine were quantified in plasma and brain samples by LC-MS/MS.

[1] = female, C57/BL6, mouse, in vivo
[2] = female, C57/BL6, mouse, in vivo, 10 days

Row | Structure (SMILES) | Cumulative Brain (brain after 10 days administration in HFD, mice) [pmol/g] | concentration at 10 days [1] [nM] | Basal Plasma (basal plasma level, mice, LC-MS/MS) | Cumulative Brain [2] [pmol/g] | Basal Brain (mouse, in vivo) | Basal Brain [1] [nmol/g] | Basal Plasma (mouse, in vivo) | Cumulative Plasma [2] [nM]
1 | COc1ccc2cc3[n+](cc2c1OC)CCc1cc2c(cc1-3)OCO2 [Berberine] | 265 | 20.5 |  |  |  |  |  | 
2 | O=C(O)CCCCC1CCSS1 (stereo not drawn) [Lipoic acid] |  | 68.2 | <LLOQ | 21 | <LLOQ |  |  | 
3 | O=C(O)c1cccnc1 [Nicotinic acid] |  | 1360 |  | 12600 |  | 9.4 | <LLOQ | 
4 | COc1cc(C2Oc3cc([C@H]4Oc5cc(O)cc(O)c5C(=O)[C@@H]4O)ccc3OC2CO)ccc1O (stereo partly drawn) [Silibinin] |  |  |  | 12.9 |  |  |  | 21
